Tested on: A. brasiliensis
Test: Preservation challenge test of inoculated O/W emulsion (ISO 11930)
Assay type: cell-based, Aspergillus brasiliensis
Settings: stored 22.5±2.5° C
Method: The evaluation of the preservation of a cosmetic formulation is based on inoculation of the formulation as outlined in table 1 with calibrated inocula (prepared from relevant strains of micro-organisms). Therefore, to each formulation 0.2 ml of calibrated inoculum is added to obtain between 1×10^2 cfu/ml and 1×10^6 cfu/ml or g of A. brasiliensis in the formulation (final concentration), which is mixed thoroughly into the formulation to ensure a homogeneous distribution of the inoculum. Then the respective containers containing the inoculated formulations are stored @22.5±2.5° C. At each specified sampling interval (initial (T0), 7 days (T7) and 28 days ([…])) 1 g of the inoculated formulation is taken and a dilution prepared to perform the enumeration of surviving micro-organisms. Then, for each time and each strain/strain mixture, the average log value is calculated which is represented in tables 2 and 3. (Procedure: see ISO 11930, chapter 5.2.-5.6.3.4. (page 3-13)) [table]

[1] = ERY 0.1 wt.-%, HG & EHG 0.9 wt.-%, time 0 days (T0)
[2] = ERY 0.1 wt.-%, HG & EHG 0.9 wt.-%, time 7 days (T7)
[3] = ERY 0.4 wt.-%, HG & EHG 0.6 wt.-%, time 0 days (T0)
[4] = ERY 0.4 wt.-%, HG & EHG 0.6 wt.-%, time 7 days (T7)

O=C(CO)[C@H](O)CO (racemic) [ERY, Erythrulose]
Average log [cfu/ml] [1]: 1.8 log [cfu/ml]
Average log [cfu/ml] [2]: 3.5 log [cfu/ml]
Average log [cfu/ml] [3]: 2.0 log [cfu/ml]
Average log [cfu/ml] [4]: 2.9 log [cfu/ml]

CCCCC(CC)COCC(O)CO (stereo not shown) [EHG, Ethylhexyl glycerine]
Average log [cfu/ml] [1]: 4.6 log [cfu/ml]
Average log [cfu/ml] [2]: 4.2 log [cfu/ml]
Average log [cfu/ml] (ERY 0.1 wt.-%, HG & EHG 0.9 wt.-%, time 28 days (T28)): 4.5 log [cfu/ml]
Average log [cfu/ml] [3]: 4.6 log [cfu/ml]
Average log [cfu/ml] [4]: 4.4 log [cfu/ml]
Average log [cfu/ml] (ERY 0.4 wt.-%, HG & EHG 0.6 wt.-%, time 28 days (T28)): 4.6 log [cfu/ml]

Reference: patent publication US20220296480A1, “TOPICAL COMPOSITIONS” (DSM IP ASSETS B.V., priority 2019, published 2022)
